From US20250270191A1, “QUINOLONE BCL6 BIFUNCTIONAL DEGRADERS” (Treeline Biosciences, Inc., priority 2022, published 2025)

Target: T1, Human BCL6 protein (N-terminal HiBiT tagged BCL6 in HT1080 cells) (Homo sapiens, UniProt P41182+Q96SW2)
T1 construct: Human BCL6 protein coding open reading frame; expressed in transfected cells; host or cells: HT1080 (ATCC CCL-121), stably transduced with lentivirus pLV-UBC-N-HiBiT-BCL6-PGK-puro
Experiment: HiBiT based BCL6 degradation assay
Assay type: cell-based
Conditions: HT1080 cells expressing N-terminal HiBiT tagged BCL6; 5 hours incubation; BCL6 degradation normalized with DMSO control
Summary of the method: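 HT1080 cells stably expressing N-terminal HiBiT-BCL6 were treated with compound dilution series for 5 h at 37° C. in RPMI 1640 with 10% FBS. HiBiT lytic luminescence read after 15 min; degradation normalized to DMSO, with curves fitted by four-parameter logistic model.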

SMILES	Ymin (5 hr)
CNC(=O)COc1cc2cc(Nc3nc(NC[C@H]4CC[C@H](CNc5cccc6c(C7CCC(=O)NC7=O)nn(C)c56)CC4)ncc3Cl)ccc2n(C)c1=O (stereo partly shown) [Compound 297b, 2-((6-((5-chloro-2-((((1r,4r)-4-(((3-(2,6-dioxopiperidin-3-yl)-1-methyl-1H-indazol-7-yl)amino)methyl)cyclohexyl)methyl)amino)pyrimidin-4-yl)amino)-1-methyl-2-oxo-1,2-dihydroquinolin-3-yl)oxy)-N-methylacetamide]	++ (50% < Ymin ≤ 70%)
CNC(=O)COc1cc2cc(Nc3nc(N4CC5CCC(Nc6cccc7c(C8CCC(=O)NC8=O)nn(C)c67)CC5C4)ncc3Cl)ccc2n(C)c1=O (stereo not shown) [Compound 339, 2-((6-((5-chloro-2-(5-((3-(2,6-dioxopiperidin-3-yl)-1-methyl-1H-indazol-7-yl)amino)octahydro-2H-isoindol-2-yl)pyrimidin-4-yl)amino)-1-methyl-2-oxo-1,2-dihydroquinolin-3-yl)oxy)-N-methylacetamide]	++ (50% < Ymin ≤ 70%)
CNC(=O)COc1cc2cc(Nc3nc(N4CCC(CC5CCN(c6cccc7c(C8CCC(=O)NC8=O)nn(C)c67)C5)CC4)ncc3Cl)ccc2n(C)c1=O (stereo not shown) [Compound 320, 2-((6-((5-chloro-2-(4-((1-(3-(2,6-dioxopiperidin-3-yl)-1-methyl-1H-indazol-7-yl)pyrrolidin-3-yl)methyl)piperidin-1-yl)pyrimidin-4-yl)amino)-1-methyl-2-oxo-1,2-dihydroquinolin-3-yl)oxy)-N-methylacetamide]	+++ (25% < Ymin ≤ 50%)
CNC(=O)COc1cc2cc(Nc3nc(N4CCC[C@@H](CCNc5ccc6c(C7CCC(=O)NC7=O)nn(C)c6c5)C4)ncc3Cl)ccc2n(C)c1=O (single isomer, unassigned) [Compound 290b]	+++ (25% < Ymin ≤ 50%)
CNC(=O)COc1cc2cc(Nc3nc(N4CCC(C5CN(c6ccc7c(C8CCC(=O)NC8=O)nn(C)c7c6)C5)CC4)ncc3Cl)ccc2n(C)c1=O (stereo not shown) [Compound 292, 2-((6-((5-chloro-2-(4-(1-(3-(2,6-dioxopiperidin-3-yl)-1-methyl-1H-indazol-6-yl)azetidin-3-yl)piperidin-1-yl)pyrimidin-4-yl)amino)-1-methyl-2-oxo-1,2-dihydroquinolin-3-yl)oxy)-N-methylacetamide]	+++ (25% < Ymin ≤ 50%)
CNC(=O)COc1cc2cc(Nc3nc(N4CCC[C@@H](COc5cccc6c(C7CCC(=O)NC7=O)nn(C)c56)C4)ncc3Cl)ccc2n(C)c1=O (stereo partly drawn) [Compound 301b, 2-((6-((5-chloro-2-((3R)-3-(((3-(2,6-dioxopiperidin-3-yl)-1-methyl-1H-indazol-7-yl)oxy)methyl)piperidin-1-yl)pyrimidin-4-yl)amino)-1-methyl-2-oxo-1,2-dihydroquinolin-3-yl)oxy)-N-methylacetamide]	++ (50% < Ymin ≤ 70%)
CNC(=O)COc1cc2cc(Nc3nc(N4CCC(CN5CCN(C(=O)c6ccc7c(C8CCC(=O)NC8=O)nn(C)c7c6)CC5)CC4)ncc3Cl)ccc2n(C)c1=O (stereo not shown) [Compound 322, 2-((6-((5-chloro-2-(4-((4-(3-(2,6-dioxopiperidin-3-yl)-1-methyl-1H-indazole-6-carbonyl)piperazin-1-yl)methyl)piperidin-1-yl)pyrimidin-4-yl)amino)-1-methyl-2-oxo-1,2-dihydroquinolin-3-yl)oxy)-N-methylacetamide]	+++ (25% < Ymin ≤ 50%)
CNC(=O)COc1cc2cc(Nc3nc(N4CCCC5(CCN(c6ccc7c(C8CCC(=O)NC8=O)nn(C)c7c6)C5)C4)ncc3Cl)ccc2n(C)c1=O (stereo not shown) [Compound 331, 2-((6-((5-chloro-2-(2-(3-(2,6-dioxopiperidin-3-yl)-1-methyl-1H-indazol-6-yl)-2,7-diazaspiro[4.5]decan-7-yl)pyrimidin-4-yl)amino)-1-methyl-2-oxo-1,2-dihydroquinolin-3-yl)oxy)-N-methylacetamide]	+++ (25% < Ymin ≤ 50%)
CNC(=O)COc1cc2cc(Nc3nc(N4CCC(CC5CN(c6cccc7c(C8CCC(=O)NC8=O)nn(C)c67)C5)CC4)ncc3Cl)ccc2n(C)c1=O (stereo not shown) [Compound 310, 2-((6-((5-chloro-2-(4-((1-(3-(2,6-dioxopiperidin-3-yl)-1-methyl-1H-indazol-7-yl)azetidin-3-yl)methyl)piperidin-1-yl)pyrimidin-4-yl)amino)-1-methyl-2-oxo-1,2-dihydroquinolin-3-yl)oxy)-N-methylacetamide]	+++ (25% < Ymin ≤ 50%)
CNC(=O)COc1cc2cc(Nc3nc(NC[C@H]4CC[C@@H](Nc5cccc(C6CCC(=O)NC6=O)c5)CC4)ncc3Cl)ccc2n(C)c1=O (stereo partly shown) [Compound 262a, 2-((6-((5-chloro-2-((((1s,4s)-4-((3-(2,6-dioxopiperidin-3-yl)phenyl)amino)cyclohexyl)methyl)amino)pyrimidin-4-yl)amino)-1-methyl-2-oxo-1,2-dihydroquinolin-3-yl)oxy)-N-methylacetamide]	++ (50% < Ymin ≤ 70%)
CNC(=O)COc1cc2cc(Nc3nc(N4CCC[C@H](CNc5ccc(C6CCC(=O)NC6=O)cc5)C4)ncc3Cl)ccc2n(C)c1=O (stereo partly drawn) [Compound 106a, 2-((6-((5-chloro-2-((3R)-3-(((4-(2,6-dioxopiperidin-3-yl)phenyl)amino)methyl)piperidin-1-yl)pyrimidin-4-yl)amino)-1-methyl-2-oxo-1,2-dihydroquinolin-3-yl)oxy)-N-methylacetamide]	++ (50% < Ymin ≤ 70%)
CNC(=O)COc1cc2cc(Nc3nc(N4CCC[C@@H](CNc5ccc(C6CCC(=O)NC6=O)cc5)C4)ncc3Cl)ccc2n(C)c1=O (stereo partly drawn) [Compound 106b, 2-((6-((5-chloro-2-((3S)-3-(((4-(2,6-dioxopiperidin-3-yl)phenyl)amino)methyl)piperidin-1-yl)pyrimidin-4-yl)amino)-1-methyl-2-oxo-1,2-dihydroquinolin-3-yl)oxy)-N-methylacetamide]	++ (50% < Ymin ≤ 70%)
CNC(=O)COc1cc2cc(Nc3nc(N4CCN(CC5CCC6(CC5)CN(c5ccc7c(C8CCC(=O)NC8=O)nn(C)c7c5)C6)CC4)ncc3Cl)ccc2n(C)c1=O (stereo not shown) [Compound 103, 2-((6-((5-chloro-2-(4-((2-(3-(2,6-dioxopiperidin-3-yl)-1-methyl-1H-indazol-6-yl)-2-azaspiro[3.5]nonan-7-yl)methyl)piperazin-1-yl)pyrimidin-4-yl)amino)-1-methyl-2-oxo-1,2-dihydroquinolin-3-yl)oxy)-N-methylacetamide]	++++ (Ymin ≤ 25%)
CNC(=O)COc1cc2cc(Nc3nc(N4CCN(C[C@@H]5CCN(c6cccc7c(C8CCC(=O)NC8=O)nn(C)c67)C5)CC4)ncc3Cl)ccc2n(C)c1=O (stereo partly drawn) [Compound 305b, 2-((6-((5-chloro-2-(4-(((3S)-1-(3-(2,6-dioxopiperidin-3-yl)-1-methyl-1H-indazol-7-yl)pyrrolidin-3-yl)methyl)piperazin-1-yl)pyrimidin-4-yl)amino)-1-methyl-2-oxo-1,2-dihydroquinolin-3-yl)oxy)-N-methylacetamide]	+++ (25% < Ymin ≤ 50%)
CNC(=O)COc1cc2cc(Nc3nc(NC[C@@H]4CCCN(c5ccc6c(C7CCC(=O)NC7=O)nn(C)c6c5)C4)ncc3Cl)ccc2n(C)c1=O (stereo partly drawn) [Compound 295b, 2-((6-((5-chloro-2-((((3S)-1-(3-(2,6-dioxopiperidin-3-yl)-1-methyl-1H-indazol-6-yl)piperidin-3-yl)methyl)amino)pyrimidin-4-yl)amino)-1-methyl-2-oxo-1,2-dihydroquinolin-3-yl)oxy)-N-methylacetamide]	++ (50% < Ymin ≤ 70%)
CNC(=O)COc1cc2cc(Nc3nc(N4CCC(OC5CCN(c6cccc7c(C8CCC(=O)NC8=O)nn(C)c67)CC5)CC4)ncc3Cl)ccc2n(C)c1=O (stereo not shown) [Compound 316, 2-((6-((5-chloro-2-(4-((1-(3-(2,6-dioxopiperidin-3-yl)-1-methyl-1H-indazol-7-yl)piperidin-4-yl)oxy)piperidin-1-yl)pyrimidin-4-yl)amino)-1-methyl-2-oxo-1,2-dihydroquinolin-3-yl)oxy)-N-methylacetamide]	++++ (Ymin ≤ 25%)
CNC(=O)COc1cc2cc(Nc3nc(N4CCC[C@H]4CNc4ccc5c(C6CCC(=O)NC6=O)nn(C)c5c4)ncc3Cl)ccc2n(C)c1=O (stereo partly drawn) [Compound 279a, 2-((6-((5-chloro-2-((2S)-2-(((3-(2,6-dioxopiperidin-3-yl)-1-methyl-1H-indazol-6-yl)amino)methyl)pyrrolidin-1-yl)pyrimidin-4-yl)amino)-1-methyl-2-oxo-1,2-dihydroquinolin-3-yl)oxy)-N-methylacetamide]	++ (50% < Ymin ≤ 70%)
CNC(=O)COc1cc2cc(Nc3nc(NC[C@H]4CC[C@H](Nc5ccc(C6CCC(=O)NC6=O)cc5)CC4)ncc3Cl)ccc2n(C)c1=O (stereo partly shown) [Compound 277a, 2-((6-((5-chloro-2-((((1r,4r)-4-((4-(2,6-dioxopiperidin-3-yl)phenyl)amino)cyclohexyl)methyl)amino)pyrimidin-4-yl)amino)-1-methyl-2-oxo-1,2-dihydroquinolin-3-yl)oxy)-N-methylacetamide]	+ (Ymin > 70%)
CC(=O)COc1cc2cc(Nc3nc(N4CCC5(CCN(CC6CCN(c7ccc8c(C9CCC(=O)NC9=O)nn(C)c8c7)CC6)CC5)CC4)ncc3Cl)ccc2n(C)c1=O (stereo not shown) [Compound 348, 3-(6-(4-((9-(5-chloro-4-((1-methyl-2-oxo-3-(2-oxopropoxy)-1,2-dihydroquinolin-6-yl)amino)pyrimidin-2-yl)-3,9-diazaspiro[5.5]undecan-3-yl)methyl)piperidin-1-yl)-1-methyl-1H-indazol-3-yl)piperidine-2,6-dione]	++++ (Ymin ≤ 25%)
